Measured values: patent publication US20220354791A1, “MESOPOROUS POLYMERIC PARTICULATE MATERIAL” (Aston University, priority 2019, published 2022)

Assay: Dissolution testing of IBU-loaded mesoporous particles (USP I rotating basket)
Format: physicochemical
Conditions: after 120 mins; pH 3.0 medium + 0.25% SLS, 900 mL, 37° C., 100 rpm, 50 mg IBU in HPMC capsule
Experimental: Testing conditions: HCL-NaCl medium pH 3+0.25% SLS, 900 mL, USP apparatus 1 (rotating basket), 100 rpm, HPLC method (mobile phase: pH 3 phosphate buffer:acetonitrile (60:40); column: C18, 15 cm×4.6 mm, 5 μm; flow rate: 2 mL/min; injection volume: 20 μL; detector: UV, 254 nm).
Dissolution testing of IBU-loaded mesoporous particles as prepared in Example 4 was performed by using USP I apparatus (rotating basket, 100 rpm) in an Erweka DT 126 dissolution tester. Samples containing 50 mg of IBU were loaded into a HPMC hard-shell capsule and tested in 900 mL of pH 3.0 medium with 0.25% SLS at 37° C. The pH 3 medium was prepared by dissolving 2 g of sodium chloride and 2.5 g of SLS in 400 mL of deionised water, then adding 0.1 mL of hydrochloric acid 37%, and diluting with deionised water to 1000.0 mL. The concentrations of dissolved IBU were determined using a HPLC method with mobile phase of phosphate buffer pH 3: acetonitrile (60:40), C18 column (15 cm×4.6 mm, 5 μm), flow rate of 2 mL/min, injection volume of 20 μL, and UV detector at 254 nm in an Agilent 1200 HPLC system.

## CC(C)Cc1ccc(C(C)C(=O)O)cc1 (stereo not shown) [Ibuprofen raw material, Ibuprofen]
  Ibuprofen dissolved: 73.4%
